Read-outs that look alike come from different tables or passages of the source.
Key:
[1] = Dose-exposure relationship (power function model with confidence interval method)
Procedure: (§1) The pharmacokinetic parameters, including the area under the plasma concentration-time curve from time zero to time t (AUC0-t) to time infinity (AUC0-∞), the time to reach the maximum plasma concentration (T max), the elimination half-time (t 1/2), and the maximum plasma concentration (C max), were calculated using the pharmacokinetic software Phoenix® WinNonlin®, version 7.0 (Scientific Consulting Inc., Apex, NC, United States). Data are expressed as the mean ± standard deviation (SD) for each group. The dose-exposure relationship was evaluated by the power function model combined with the confidence interval method ([Smith et al., 2000]; [Sethuraman et al., 2007]; [Hummel et al., 2009]). First, the administration dose, AUC0-∞ and C max were logarithmically transformed, and then a linear regression was performed to obtain the curve correlation coefficient (R^2), slope and 90% confidence interval (90% CI).

[2] = Excretion into urine and feces and mass balance after oral RPM extract; conditions: for dose excreted: Sprague-Dawley, rat, po; for cumulative excretion into urine / detection in urine: rat urine
Procedure: (§2) For the excretion study, the rats were housed singly in metabolic cages with urine collection tubes kept at 4 °C during sample collection. Urine and fecal samples were collected at time intervals of 0–4, 4–8, 8–24, 24–32, and 32–48 h after a single dose of RPM extract at 18 g/kg and then weighed. Another six rats were anesthetized with pentobarbital, fixed in the supine position and subjected to bile duct drainage surgery, and the abdominal wound was sutured. Blank bile samples were collected before the administration of RPM. The rats were weighed, and the state of the rats was observed. Subsequently, they were orally administered 18 g/kg RPM extract. The bile samples were collected at time intervals of 0–1, 1–2, 2–4, 4–6, 6–8, 8–24, 24–32 and 32–48 h. The urine, feces, and bile samples were stored at −70°C until use.
(§3) Samples were prepared using the protein precipitation process. […] After vortex shaking for 5 min and centrifugation at 14,000 g for 5 min, 150 μL of the organic layer was transferred to a clean tube and evaporated to dryness at 25°C under a stream of nitrogen. The residue was reconstituted in 50 μL of the initial mobile phase and subjected to another round of centrifugation at 14,000 g for 5 min, and 5 μL of the supernatant was injected for LC–MS/MS analysis. […] Urine and bile samples were centrifuged at 4°C and 12,000 × g for 15 min. Fecal samples were homogenized in 0.9% saline and then centrifuged at 4°C and 12,000 × g for 15 min to gather the fecal homogenates. Tissue homogenate, urine, bile and fecal samples were subjected to a similar process as the rat plasma samples.
(§4) For the excretion study, 6 rats were placed in metabolic cage after orally administered with 18 g/kg RPM extract, and urine, feces samples were collected at time intervals of 0–4, 4–8, 8–24, 24–32, 32–48, 48–60, and 60–72 h. Another 6 rats were anesthetized with pentobarbital, fixed in the supine position and performed bile duct drainage operation, and the abdominal wound was sutured. […] Subsequently, they were orally administered with 18 g/kg RPM extract. The bile samples were collected at time intervals of 0–1, 1–2, 2–4, 4–6, 6–8, 8–24, 24–32 and 32–48 h. The urine, feces, and bile samples were stored at −70 °C until use.

[3] = RPM extract 36 g/kg p.o., rat plasma, Mean ± SD, n = 6; ref Cheng et al., 2020; cited from earlier work
[4] = Plasma pharmacokinetics of RPM constituents after oral RPM extract; conditions: for time at which C max was exhibited: RPM extract p.o.; for plasma concentrations: RPM extract 6, 18 and 36 g/kg p.o.
Source text: For the pharmacokinetic (PK) study, three groups (n = 6 each) of rats were orally administered RPM extract (6, 18, and 36 g/kg). In the plasma pharmacokinetics experiment, doses were 6, 18, and 36 g/kg for the single administration group and 18 g/kg for the continuous administration group. The doses were set at a subtoxic level ([Zhang et al., 2013]; [Wang et al., 2015]) to investigate the pharmacokinetic profiles of the constituents of RPM (36 g/kg group) and were approximately 60 times the upper dose (6 g/day) for humans recommended by the 2020 edition of Chinese Pharmacopoeia ([Chinese Pharmacopoeia Commission, 2020]), which was converted to a dose for rats based on body surface area conversion ([Reagan-Shaw et al., 2008]). In addition, the low and medium doses decreased in a certain proportion. Serial blood samples (∼120 μL; before dosing and at 5, 15, and 30 min, and 1, 2, 4, 6, 8, 12, and 24 h after administration) were collected in heparinized tubes from the orbital sinus under light isoflurane. The blood samples were centrifuged at 12000 g for 2 min, and the plasma fractions were decanted and frozen at −70°C until analysis.
Samples were prepared using the protein precipitation process. Rat plasma (50 μL) spiked with 10 μL of IS (puerarin 100 ng/ml) was extracted with 150 μL acetonitrile. After vortex shaking for 5 min and centrifugation at 14,000 g for 5 min, 150 μL of the organic layer was transferred to a clean tube and evaporated to dryness at 25°C under a stream of nitrogen. The residue was reconstituted in 50 μL of the initial mobile phase and subjected to another round of centrifugation at 14,000 g for 5 min, and 5 μL of the supernatant was injected for LC–MS/MS analysis.
The analysis was performed on an AB Sciex API 5500 Q Trap mass spectrometer (Toronto, Canada), interfaced with a Waters Acquity UPLC separation module.
as §1

[5] = Biliary excretion in bile duct drained rats after oral RPM extract; conditions: single p.o. RPM extract 18 g/kg, rat bile
Procedure: as §2, §3, §4

[6] = Tissue distribution of RPM constituents after oral RPM extract; conditions: Sprague-Dawley, rat, po, 18 g/kg
Procedure: For the tissue distribution study, 18 rats were randomly divided into three groups (n = 6, each) and orally administered 18 g/kg RPM extract. The rats under isoflurane anesthesia were sacrificed by bleeding from the abdominal aorta at 5, 15, and 60 min (six rats per time point) after gavage with 18 g/kg RPM extract. Subsequently, the heart, liver, spleen, lung, kidney, brain, stomach, small intestine, bladder, and gonads (testes of male rats, and uterus and ovaries of female rats) were immediately collected. An accurately weighed amount of fresh tissue sample (0.25 g) was individually homogenized with normal saline (1 ml) and transferred (50 μL) as a tissue homogenate to 1.5 ml centrifuge tubes for use as the tissue samples. All tissue samples were stored at −70°C until analysis.
Samples were prepared using the protein precipitation process. […] The tissue samples were homogenized in four parts of ice-cold 0.9% saline solution and then centrifuged at 4°C and 12,000 × g for 10 min to obtain tissue homogenates. […] Tissue homogenate, urine, bile and fecal samples were subjected to a similar process as the rat plasma samples.
For the tissue distribution study, 18 rats were randomly divided into three groups (n=6, each), and orally administered with 18 g/kg RPM extract. The rats were sacrificed at 5, 15, 60 min after orally administering RPM. Subsequently, the heart, liver, spleen, lung, kidney, brain, stomach, small intestine, bladder, gonad (testes of male rats, uterus and ovaries of female rats) were immediately collected. An accurately weighed amount of fresh tissue sample (0.25 g) was individually homogenized with normal saline (1 mL) and transferred (50 μL) as a tissue homogenate to 1.5 mL centrifuge tubes for use as the tissue samples.

[7] = AUC0-∞ vs p.o. dose of RPM extract, critical interval 0.88–1.12
[8] = log AUC0-∞ vs log p.o. dose of RPM extract, critical interval 0.88–1.12
[9] = log C max vs log p.o. dose of RPM extract, critical interval 0.80–1.20
[10] = feces, Recovery in feces (%), mass balance, 18 g/kg RPM extract p.o., feces collected 0–72 h
[11] = urine and feces, Recovery in urine and feces (%), mass balance, 18 g/kg RPM extract p.o., urine plus feces, 0–72 h
[12] = urine, Recovery in urine (%), mass balance, 18 g/kg RPM extract p.o., urine collected 0–72 h
[13] = single p.o. RPM extract 18 g/kg, rat feces
[14] = single p.o. RPM extract 18 g/kg
[15] = Sprague-Dawley, rat, plasma, po, 6 g/kg
[16] = Sprague-Dawley, rat, plasma, po, 18 g/kg
[17] = both, bladder, AUC0-t in bladder, rat tissue: bladder, 18 g/kg RPM extract p.o., tissues collected at 5, 15, 60 min
[18] = both, heart, AUC0-t in heart, rat tissue: heart, 18 g/kg RPM extract p.o., tissues collected at 5, 15, 60 min
[19] = both, intestine, AUC0-t in intestine, rat tissue: intestine, 18 g/kg RPM extract p.o., tissues collected at 5, 15, 60 min
[20] = both, kidney, AUC0-t in kidney, rat tissue: kidney, 18 g/kg RPM extract p.o., tissues collected at 5, 15, 60 min
[21] = both, liver, AUC0-t in liver, rat tissue: liver, 18 g/kg RPM extract p.o., tissues collected at 5, 15, 60 min
[22] = both, lung, AUC0-t in lung, rat tissue: lung, 18 g/kg RPM extract p.o., tissues collected at 5, 15, 60 min
[23] = both, spleen, AUC0-t in spleen, rat tissue: spleen, 18 g/kg RPM extract p.o., tissues collected at 5, 15, 60 min
[24] = both, stomach, AUC0-t in stomach, rat tissue: stomach, 18 g/kg RPM extract p.o., tissues collected at 5, 15, 60 min
[25] = female, ovary, AUC0-t in ovary, rat tissue: ovary, 18 g/kg RPM extract p.o., tissues collected at 5, 15, 60 min
[26] = female, uterus, AUC0-t in uterus, rat tissue: uterus, 18 g/kg RPM extract p.o., tissues collected at 5, 15, 60 min
[27] = C max vs p.o. dose of RPM extract, critical interval 0.80–1.20

Row | Structure (SMILES) | Conclusion (dose-exposure relationship) [1, 7] | Slope (90%CI) [1, 8] | Slope (90%CI) [1, 9] | cumulative excretion into feces [2, 13] | AUC(0-inf) [4, 15] | AUC(0-t) [4, 15] | Cmax [4, 15] | MRT inf [4, 15] | Tmax [4, 15] | half-life [4, 15] | AUC(0-inf) [4, 16] | AUC(0-t) [4, 16] | Cmax [4, 16] | MRT inf [4, 16] | Tmax [4, 16] | half-life [4, 16] | Conclusion (dose-exposure relationship) [1, 27] | AUC0-∞ [3] | AUC(0-t) [3] | Cmax [3] | further results
1 | COc1cc(O)cc2c1C(=O)c1c(O)cc(C)cc1C2=O [questin] | – | – | – | – | – | – | – | – | – | – | – | – | – | – | – | – | – | – | – | – | plasma concentrations ([4]; rat plasma): too low to be detected
2 | O=C1c2cccc(O)c2C(=O)c2c(O)cc(CO)cc21 [Aloe-emodin, aloe-emodin] | Uncertainty of linear relationship | 0.582 (0.278–0.885) | 1.07 (0.795–1.35) | 43.7 ± 6.18 nmol | 0.0124 ± 0.007 µM·h | 0.00832 ± 0.00416 µM·h | 8.25 ± 7.47 nM | 9.61 ± 8.77 h | 0.29 ± 0.1 h | 8.46 ± 7.14 h | 0.0324 ± 0.0144 µM·h | 0.0254 ± 0.0097 µM·h | 31.7 ± 3.03 nM | 4.65 ± 3.53 h | – | 5.09 ± 3.38 h | Uncertainty of linear relationship | 0.0313 ± 0.0127 µM·h | 0.027 ± 0.012 µM·h | 42 ± 11.5 nM | dose excreted [2, 10]: 21.7%; dose excreted [2, 11]: 31.4%; dose excreted [2, 12]: 9.69%; cumulative excretion into urine [2, 14]: 19.3 ± 5.44 nmol; time at which C max was exhibited ([4]; rat plasma): ≤ 20 min; cumulative excretion into bile [5]: 61.1 ± 8.66 nmol; AUC(0-t) ([6]; both, brain): 0.00106 µM·h; AUC(0-t) ([6]; both, heart): 0.0169 µM·h; AUC(0-t) ([6]; both, intestine): 0.00733 µM·h; AUC(0-t) ([6]; both, kidney): 0.00977 µM·h; AUC(0-t) ([6]; both, liver): 0.0555 µM·h; AUC(0-t) ([6]; both, lung): 0.0313 µM·h; AUC(0-t) ([6]; both, spleen): 0.0525 µM·h; AUC(0-t) ([6]; both, stomach): 0.0238 µM·h; AUC(0-t) ([6]; female, ovary): 0.00666 µM·h
3 | Cc1cc(O)c2c(c1)C(=O)c1cccc(O)c1C2=O [Chrysophanol] | Nonlinear correlation | –0.667 (–1.14 to –0.193) | –0.158 (-0.337–0.021) | – | 0.34 ± 0.195 µM·h | 0.0748 ± 0.0589 µM·h | 9.36 ± 3.26 nM | 40.3 ± 23.3 h | 1.03 ± 0.96 h | 26.3 ± 14.4 h | – | 0.0198 ± 0.00941 µM·h | 7.87 ± 2.19 nM | – | 3.51 ± 3.06 h | – | Nonlinear correlation | 0.0404 ± 0.00736 µM·h | 0.0169 ± 0.00647 µM·h | 7.48 ± 2.21 nM | AUC(0-t) [6, 17]: 0.0376 µM·h; AUC(0-t) [6, 18]: 0.0311 µM·h; AUC(0-t) [6, 19]: 0.0277 µM·h; AUC(0-t) [6, 20]: 0.0132 µM·h; AUC(0-t) [6, 21]: 0.0273 µM·h; AUC(0-t) [6, 22]: 0.0476 µM·h; AUC(0-t) [6, 23]: 0.0503 µM·h; AUC(0-t) ([6]; both, spleen, AUC0-t in the spleen, RPM extract 18 g/kg p.o., rat spleen, sampling 5, 15, 60 min): 0.0503 µM·h; AUC(0-t) [6, 24]: 0.0345 µM·h; AUC(0-t) [6, 26]: 0.029 µM·h
4 | Cc1cc(O)c2c(c1)C(=O)c1cccc(O[C@@H]3O[C@H](CO)[C@@H](O)[C@H](O)[C@H]3O)c1C2=O [CG, chrysophanol-8-O-β-D-glucoside] | – | – | – | – | – | – | – | – | – | – | – | – | – | – | – | – | – | – | – | – | plasma concentrations ([4]; rat plasma): too low to be detected

More lines, main results first:

Row | Conclusion (dose-exposure relationship) [1, 7] | Slope (90%CI) [1, 8] | Slope (90%CI) [1, 9] | cumulative excretion into feces [2, 13] | AUC(0-inf) [4, 15] | AUC(0-t) [4, 15] | Cmax [4, 15] | MRT inf [4, 15] | Tmax [4, 15] | half-life [4, 15] | AUC(0-inf) [4, 16] | AUC(0-t) [4, 16] | Cmax [4, 16] | MRT inf [4, 16] | Tmax [4, 16] | half-life [4, 16] | Conclusion (dose-exposure relationship) [1, 27] | Structure (SMILES) | AUC0-∞ [3] | AUC(0-t) [3] | Cmax [3] | further results
5 | Uncertainty of linear relationship | 0.720 (0.464–0.977) | 0.756 (0.627–0.884) | 30.4 ± 5.73 nmol | 0.0166 ± 0.0109 µM·h | 0.0158 ± 0.0106 µM·h | 12.4 ± 2.66 nM | 1.58 ± 0.77 h | 0.19 ± 0.09 h | 1.23 ± 0.58 h | 0.0495 ± 0.0171 µM·h | 0.048 ± 0.0172 µM·h | 37.3 ± 4.57 nM | 2.23 ± 0.3 h | 0.11 ± 0.07 h | 1.9 ± 0.22 h | – | COc1cc(O[C@@H]2O[C@H](CO)[C@@H](O)[C@H](O)[C@H]2O)c2c(O)c(C(C)=O)c(C)cc2c1 [TG, torachrysone-8-O-glucoside] | 0.053 ± 0.0183 µM·h | 0.0519 ± 0.0181 µM·h | 45.8 ± 9.94 nM | dose excreted [2, 10]: 27.9%; dose excreted [2, 11]: 45.5%; dose excreted [2, 12]: 17.6%; cumulative excretion into urine [2, 14]: 19.1 ± 2.99 nmol; MRT0-∞ [3]: 2.10 ± 0.24 h; t 1/2 [3]: 2.00 ± 0.63 h; time at which C max was exhibited ([4]; rat plasma): ≤ 20 min; cumulative excretion into bile [5]: 8.96 ± 2.38 nmol; AUC(0-t) [6, 17]: 0.438 µM·h; AUC(0-t) ([6]; both, brain, AUC0-t in brain, rat tissue: brain, 18 g/kg RPM extract p.o., tissues collected at 5, 15, 60 min): 0.0185 µM·h; AUC(0-t) [6, 18]: 1.78 µM·h; AUC(0-t) [6, 19]: 0.181 µM·h; AUC(0-t) [6, 20]: 0.845 µM·h; AUC(0-t) [6, 21]: 3.81 µM·h; AUC(0-t) [6, 22]: 0.438 µM·h; AUC(0-t) [6, 23]: 1.19 µM·h; AUC(0-t) [6, 24]: 1.46 µM·h; AUC(0-t) [6, 25]: 0.153 µM·h; AUC(0-t) [6, 26]: 0.38 µM·h; AUC(0-t) ([6]; male, testis, AUC0-t in testis, rat tissue: testis, 18 g/kg RPM extract p.o., tissues collected at 5, 15, 60 min): 0.0698 µM·h
6 | Nonlinear correlation | 0.551 (0.275–0.827) | 0.774 (0.610–0.938) | 0.566 ± 0.0666 nmol | 0.027 ± 0.0228 µM·h | 0.00861 ± 0.00169 µM·h | 1.09 ± 0.317 nM | 12.2 ± 2.93 h | 3.5 ± 2.17 h | 8 ± 2.01 h | 0.0583 ± 0.0143 µM·h | 0.0401 ± 0.00898 µM·h | 3.54 ± 0.652 nM | 20.6 ± 13.5 h | 1.83 ± 1.8 h | 14.4 ± 9.99 h | Uncertainty of linear relationship | COc1cc(O)cc2c1C(=O)c1c(O)cc(CO)cc1C2=O [Questinol, questinol] | 0.0575 ± 0.00945 µM·h | 0.0473 ± 0.00685 µM·h | 4 ± 0.673 nM | dose excreted ([2]; urine and feces, recovery from the urine and feces, single p.o. RPM extract 18 g/kg, rats): 4.12%; detection in urine [2, 14]: not have been detected; MRT0-∞ [3]: 13.6 ± 4.21 h; T max [3]: 4.38 ± 4.03 h; t 1/2 [3]: 8.90 ± 2.70 h; detection in bile [5]: not detected; AUC(0-t) [6, 17]: 0.0169 µM·h; AUC(0-t) [6, 18]: 0.034 µM·h; AUC(0-t) [6, 20]: 0.0243 µM·h; AUC(0-t) [6, 21]: 0.0553 µM·h; AUC(0-t) [6, 22]: 0.0251 µM·h; AUC(0-t) [6, 23]: 0.0103 µM·h; AUC(0-t) [6, 24]: 0.0061 µM·h; AUC(0-t) [6, 25]: 0.0168 µM·h; AUC(0-t) [6, 26]: 0.0186 µM·h
7 | – | – | 0.034 (-0.482–0.550) | – | – | – | – | – | – | – | – | 0.00426 ± 0.00299 µM·h | – | – | 0.42 ± 0.14 h | – | Nonlinear correlation | O=C(O)c1cc(O)c2c(c1)C(=O)c1cccc(O)c1C2=O [Rhein, rhein] | 0.00814 ± 0.00178 µM·h | 0.00391 ± 0.00223 µM·h | 3.74 ± 0.84 nM | detection in feces [2, 13]: not detected; detection in urine [2, 14]: not detected; Cmax ([4]; RPM extract 18 g/kg p.o., rat plasma, Mean ± SD, n = 6): 3.72 ± 1.25 nM; plasma concentration ([4]; rats dosed with 6 g/kg RPM, plasma): could not be detected; cumulative excretion into bile [5]: 45.0 ± 8.41 nmol

Source: paper PMC8899820, “Pharmacokinetics, Tissue Distribution, and Excretion Characteristics of a Radix Polygoni Multiflori Extract in Rats” (Frontiers in Pharmacology, 2022)
